Target: Dual leucine zipper kinase (MAP3K12) (Homo sapiens)
Experiment: Binding affinity to DLK (unknown origin) assessed as inhibition constant

CC(C)n1nc(Nc2cc(C(F)(F)F)ccn2)cc1C1CCNCC1
Ki: 145 nM

CC(=O)N1CCC(c2cc(Nc3cc(C(F)(F)F)ccn3)nc(N3CCC(F)(F)C3)n2)CC1
Ki: 33 nM
